From paper PMC9791819 (Biochemistry and Biophysics Reports, 2022)

Legend:
BiCMKEngA = target: T1, BiCMKEngA (Bifidobacterium longum, UniProt A0ACD7UKP5); experiment: isothermal titration calorimetry; type: binding; conditions: 10 mM Tris pH 8.0, 300 mM NaCl, 50 mM MgCl2, 25 °C; with or without 1 mM CMP
T1 sequence (A0ACD7UKP5 1-709): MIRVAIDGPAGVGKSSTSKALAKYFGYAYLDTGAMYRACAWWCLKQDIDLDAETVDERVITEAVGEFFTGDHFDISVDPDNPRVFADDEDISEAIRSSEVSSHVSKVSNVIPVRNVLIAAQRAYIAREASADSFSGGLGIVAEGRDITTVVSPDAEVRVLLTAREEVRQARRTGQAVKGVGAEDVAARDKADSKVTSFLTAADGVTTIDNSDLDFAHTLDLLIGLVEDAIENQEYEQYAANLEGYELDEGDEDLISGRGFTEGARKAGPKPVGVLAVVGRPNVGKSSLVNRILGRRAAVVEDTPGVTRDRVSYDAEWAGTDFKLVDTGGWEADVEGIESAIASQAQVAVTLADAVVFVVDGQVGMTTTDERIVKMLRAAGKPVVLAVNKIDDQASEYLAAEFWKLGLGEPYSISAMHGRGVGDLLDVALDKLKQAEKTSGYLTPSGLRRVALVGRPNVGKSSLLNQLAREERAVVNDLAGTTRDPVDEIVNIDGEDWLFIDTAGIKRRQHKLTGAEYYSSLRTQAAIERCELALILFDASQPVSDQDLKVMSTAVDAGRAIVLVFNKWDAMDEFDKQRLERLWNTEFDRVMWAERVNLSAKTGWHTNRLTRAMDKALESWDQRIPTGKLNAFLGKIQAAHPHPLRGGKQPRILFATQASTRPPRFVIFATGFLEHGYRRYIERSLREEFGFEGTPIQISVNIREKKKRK

BiEngA = target: T2, BiEngA (Bifidobacterium longum, UniProt A0ACD7UKP5); experiment: isothermal titration calorimetry; type: binding; conditions: 10 mM Tris pH 8.0, 300 mM NaCl, 50 mM MgCl2, 25 °C
T2 sequence (A0ACD7UKP5 222-709 limits assumed): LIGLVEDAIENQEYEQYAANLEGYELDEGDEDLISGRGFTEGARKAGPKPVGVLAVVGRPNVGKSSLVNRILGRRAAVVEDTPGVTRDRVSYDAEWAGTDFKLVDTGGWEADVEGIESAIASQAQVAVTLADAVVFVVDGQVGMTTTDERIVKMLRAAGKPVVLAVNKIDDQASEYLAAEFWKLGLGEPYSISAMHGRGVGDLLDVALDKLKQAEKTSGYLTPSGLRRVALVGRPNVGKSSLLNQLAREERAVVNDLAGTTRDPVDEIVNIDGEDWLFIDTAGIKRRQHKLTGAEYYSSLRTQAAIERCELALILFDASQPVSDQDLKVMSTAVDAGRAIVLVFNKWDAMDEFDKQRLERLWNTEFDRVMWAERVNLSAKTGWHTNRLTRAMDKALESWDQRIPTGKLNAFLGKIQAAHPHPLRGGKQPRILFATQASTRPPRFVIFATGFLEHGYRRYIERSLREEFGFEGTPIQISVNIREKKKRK

| Compound | KD (BiCMKEngA) | KD (BiEngA) |
| --- | --- | --- |
| Nc1ncnc2c1ncn2[C@@H]1O[C@H](COP(=O)(O)OP(=O)(O)OP(=O)(O)O)[C@@H](O)[C@H]1O [ATP] | Relative dissociation constants of the full length and individual domains for ATP and GTP |  |
| Nc1nc2c(ncn2[C@@H]2O[C@H](COP(=O)(O)OP(=O)(O)OP(=O)(O)O)[C@@H](O)[C@H]2O)c(=O)[nH]1 [GTP] |  | the KD values for GTP, as determined from ITC experiments, were of the similar order |
